The values that follow come from patent publication US8846639B2, “Oligomeric compounds comprising bicyclic nucleosides and having reduced toxicity” (Isis Pharmaceutical, Inc., priority 2008, dated 2014).

Several values for one entry are separate records, joined by “and”; a condition that tells them apart may be missing. Equal values may be shown once.

Data set [1] is described as follows: Liver transaminase (ALT) levels in serum (Example 14). It counts as in vivo, mice. Here is the method: (§1) Six week old male Balb/c mice (Jackson Laboratory, Bar Harbor, Me.) were administered a single intraperitoneal (i.p) injection with 4′-CH2—O-2′ BNA containing oligomers (392745 and 392063) and 6(S)-4′-CH(CH3)—O-2′ BNA containing oligomers (392749 and 411847) at a does of 3.2, 10, 32, 66 and 100 mg/kg. Oligomers 392063 and 411847 contain LNA nucleosides with methylated pyrimidines, and oligomers 392745 and 392749 contain LNA nucleosides with non-methylated pyrimidines in the wings. All intemucleoside linkages are phosphorothioates, nucleosides not followed by a subscript are βD-2′-deoxyribonucleosides, nucleosides followed by a subscript 1 are 4′-CH2—O-2′ modified bicyclic nucleosides, nucleosides followed by a subscript S are 6(S)-4′-CH(CH3)—O-2′ modified bicyclic nucleosides wherein S indicates the configuration at the 6 carbon atom and ^MeC indicates a 5′-methyl cytosine nucleoside.
Liver transaminase levels, alanine aminotranferease (ALT) and aspartate aminotransferase (AST), in serum were also measured relative to saline injected mice. Increases in the transaminase levels can indicate hepatotoxicity. The approximate liver transaminase levels are listed below.

Data set [2] relates to PTEN mRNA. Kind of data set: PTEN mRNA levels in liver, real-time PCR (Example 14 in vivo study). Set-up: species or system mice. The note with it: for PTEN mRNA levels (% inhibition): liver, 72 h; for ED50: estimated, Graphpad Prism, dose at which 50% mRNA reduction is observed. Here is the method: as §1
Each dose group consisted of four animals. The mice were sacrificed 72 hours following the final administration to determine the PTEN mRNA levels in liver using real-time PCR and RIBOGREEN® RNA quantification reagent (Molecular Probes, Inc. Eugene, Oreg.) according to standard protocols. PTEN mRNA levels were determined relative to total RNA (using Ribogreen), prior to normalization to saline-treated control. Results are listed below as the average % inhibition of mRNA expression for each treatment group, normalized to saline-injected control.
Estimated ED50 concentrations for each oligomers were calculated using Graphpad Prism. ED50 is the dose at which 50% mRNA reducation is observed.

Data set [3] is described as follows: Serum ALT, individual animals (Example 16). The format is in vivo, mice. The conditions noted are these: four animals. As for the experimental part:
(§2) Mice were divided into 17 groups, with 4 mice in each group. The mice of 16 groups received a single dose, administered i.p., of one of the above oligomeric compounds at a dose of 100, 32, 10, or 3.2 mg/kg. The final group was dosed with phosphate buffered saline (PBS) as a control. The mice were sacrificed 72 hours after administration. Antisense activity was determined by measuring PTEN RNA in liver and is expressed as % reduction compared to PBS control mice.
Toxicity was assessed by measuring alanine aminotranferease (ALT) in serum.

Data set [4] is described as follows: Body weight at sacrifice relative to pre-dose (Example 16). The note with it: 72 h, PBS = 102. It counts as in vivo, mice. As for the experimental part:
as §2
Body weight was measured before treatment and again at sacrifice 72 hours after treatment.

Data set [5] is described as follows: Spleen weight as a measure of inflammatory response (Example 16). It counts as in vivo, mice. The note with it: relative to PBS control. Here is the method:
as §2
Spleens were weighed as a measure of inflammatory response.

Data set [6] has as its system PTEN RNA. Nature of the data set: PTEN RNA in liver (Example 16 in vivo study). The arrangement: species or system mice. The note with it: for % Reduction PTEN RNA: liver, 72 h, compared to PBS control; for ED50: PTEN RNA in liver. As for the experimental part: Six week old male Balb/c mice (Jackson Laboratory, Bar Harbor, Me.) were administered a single intraperitoneal (i.p) injection of oligomers as set forth in the table below.
as §2

In the case of ^MeCSTSTAGCACTGGC^MeCSTS [ISIS 411847], the ALT levels came out at 26 IU/L in data set [1] (3.2 mg/kg, serum, saline = 24); 27 IU/L in data set [1] (10 mg/kg, serum, saline = 24); 16 IU/L in data set [1] (32 mg/kg, serum, saline = 24); 279 IU/L in data set [1] (66 mg/kg, serum, saline = 24); 2816 IU/L in data set [1] (100 mg/kg, serum, saline = 24). For the same substance, the “ALT level decrease as compared to 392063 treatment” value in data set [1] (dose not stated) was “about 5 fold”. Besides, the “PTEN mRNA levels (% inhibition)” value in data set [2] (3.2 mg/kg single i.p.) came to 0%; in data set [2] (10 mg/kg single i.p.) it was 32%; in data set [2] (32 mg/kg single i.p.), 87%; in data set [2] (66 mg/kg single i.p.), 84%; in data set [2] (100 mg/kg single i.p.), 92%. Also, in data set [2], the ED50 was 12 mg/kg.

In the case of CSUSTAGCACTGGCCSUS [ISIS 392749], the ALT levels is recorded as 18 IU/L in data set [1] (3.2 mg/kg, serum, saline = 24); 24 IU/L in data set [1] (10 mg/kg, serum, saline = 24); 14 IU/L in data set [1] (32 mg/kg, serum, saline = 24); 18 IU/L in data set [1] (66 mg/kg, serum, saline = 24); 33 IU/L in data set [1] (100 mg/kg, serum, saline = 24); “not elevated to a level indicative of hepatotoxicity” in data set [1] (all doses). The “PTEN mRNA levels (% inhibition)” value in data set [2] (3.2 mg/kg single i.p.) came out at 14%; in data set [2] (10 mg/kg single i.p.), 20%; in data set [2] (32 mg/kg single i.p.), 81%; in data set [2] (66 mg/kg single i.p.), 92%; in data set [2] (100 mg/kg single i.p.), 93%. The ED50 in data set [2] was 15 mg/kg.

Turning to “Cxs Uxs Tds Ads Gds Cds Ads Cds Tds Gds Gds Cds Cxs Ux [ISIS 445544]”, the “ALT levels - Individual animals” value in data set [3] (3.2 mg/kg) is 21 IU/L and 28 IU/L and 30 IU/L and 36 IU/L; in data set [3] (10 mg/kg) it was 23 IU/L and 33 IU/L and 20 IU/L and 36 IU/L; in data set [3] (32 mg/kg) it was 23 IU/L and 38 IU/L and 19 IU/L and 22 IU/L; in data set [3] (100 mg/kg), 977 IU/L and 1061 IU/L and 88 IU/L and 133 IU/L. Further, the “% pre-dose wt” value in data set [4] (3.2 mg/kg) is on record as 103%; in data set [4] (10 mg/kg) it was 101%; in data set [4] (32 mg/kg), 102%; in data set [4] (100 mg/kg) it was 98%. Also, the “spleen weight, % Control” value was determined as 98% in data set [5] (3.2 mg/kg), 92% in data set [5] (10 mg/kg), 101% in data set [5] (32 mg/kg) and 109% in data set [5] (100 mg/kg). Moreover, the “% Reduction PTEN RNA” value in data set [6] (3.2 mg/kg single i.p.) turned out to be 31%; in data set [6] (10 mg/kg single i.p.), 72%; in data set [6] (32 mg/kg single i.p.), 93%; in data set [6] (100 mg/kg single i.p.), 95%. The substance also showed an ED50 in data set [6] of 4.9 mg/kg.

In the case of “Cjs Uos Tds Ads Gds Cds Ads Cds Tds Gds Gds Cds Cjs Uj [ISIS 443393]”, the “ALT levels - Individual animals” value was 19 IU/L and 36 IU/L and 83 IU/L and 20 IU/L in data set [3] (3.2 mg/kg); 26 IU/L and 33 IU/L and 30 IU/L and 29 IU/L in data set [3] (10 mg/kg); 21 IU/L and 24 IU/L and 53 IU/L (2×) in data set [3] (32 mg/kg); 16 IU/L and 22 IU/L and 42 IU/L and 23 IU/L in data set [3] (100 mg/kg). For the same substance, the “% pre-dose wt” value in data set [4] (3.2 mg/kg) was found to be 101%; in data set [4] (10 mg/kg) it was 104%; in data set [4] (32 mg/kg) it was 99%; in data set [4] (100 mg/kg), 98%. Also, the “spleen weight, % Control” value is 89% in data set [5] (3.2 mg/kg), 96% in data set [5] (10 mg/kg), 110% in data set [5] (32 mg/kg) and 96% in data set [5] (100 mg/kg). For the same substance, the “% Reduction PTEN RNA” value is listed as 10% in data set [6] (3.2 mg/kg single i.p.), 35% in data set [6] (10 mg/kg single i.p.), 64% in data set [6] (32 mg/kg single i.p.) and 91% in data set [6] (100 mg/kg single i.p.). The median effective dose (ED50) in data set [6] is 16.2 mg/kg.

The ED50 is the dose at which the effect has come halfway, by size or by number of responders.
